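Each compound was tested at five concentrations against cells in 96-well plates for 48 hours. The concentration for 50% growth inhibition is given as GI50. TGI is the concentration that stops growth completely.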
What was measured:
Test in all cases: DTP human tumour cell line panel, 48 h
786-0 renal = tested on: 786-0 renal
A498 renal = tested on: A498 renal
A549 NSCLC = tested on: A549 NSCLC
ACHN renal = tested on: ACHN renal
BT-549 breast = tested on: BT-549 breast
CAKI-1 renal = tested on: CAKI-1 renal
CCRF-CEM leukemia = tested on: CCRF-CEM leukemia
COLO 205 colon = tested on: COLO 205 colon
DU-145 prostate = tested on: DU-145 prostate
EKVX NSCLC = tested on: EKVX NSCLC
HCC-2998 colon = tested on: HCC-2998 colon
HCT-116 colon = tested on: HCT-116 colon
HCT-15 colon = tested on: HCT-15 colon
HL-60(TB) leukemia = tested on: HL-60(TB) leukemia
HOP-62 NSCLC = tested on: HOP-62 NSCLC
HOP-92 NSCLC = tested on: HOP-92 NSCLC
HS 578T breast = tested on: HS 578T breast
HT29 colon = tested on: HT29 colon
IGROV1 ovarian = tested on: IGROV1 ovarian
K-562 leukemia = tested on: K-562 leukemia
KM12 colon = tested on: KM12 colon
LOX IMVI melanoma = tested on: LOX IMVI melanoma
M14 melanoma = tested on: M14 melanoma
MALME-3M melanoma = tested on: MALME-3M melanoma
MCF7 breast = tested on: MCF7 breast
MDA-MB-231 breast = tested on: MDA-MB-231 breast
MDA-MB-435 = tested on: MDA-MB-435
MOLT-4 leukemia = tested on: MOLT-4 leukemia
NCI-H226 lung = tested on: NCI-H226 lung
NCI-H23 lung = tested on: NCI-H23 lung
NCI-H460 lung = tested on: NCI-H460 lung
NCI-H522 lung = tested on: NCI-H522 lung
NCI/ADR-RES ovarian = tested on: NCI/ADR-RES ovarian
OVCAR-3 ovarian = tested on: OVCAR-3 ovarian
OVCAR-4 ovarian = tested on: OVCAR-4 ovarian
OVCAR-5 ovarian = tested on: OVCAR-5 ovarian
OVCAR-8 ovarian = tested on: OVCAR-8 ovarian
PC-3 prostate = tested on: PC-3 prostate
RPMI-8226 leukemia = tested on: RPMI-8226 leukemia
RXF 393 renal = tested on: RXF 393 renal
SF-268 CNS = tested on: SF-268 CNS
SF-295 CNS = tested on: SF-295 CNS
SF-539 CNS = tested on: SF-539 CNS
SK-MEL-2 melanoma = tested on: SK-MEL-2 melanoma
SK-MEL-28 melanoma = tested on: SK-MEL-28 melanoma
SK-MEL-5 melanoma = tested on: SK-MEL-5 melanoma
SK-OV-3 ovarian = tested on: SK-OV-3 ovarian
SN12C renal = tested on: SN12C renal
SNB-19 CNS = tested on: SNB-19 CNS
SNB-75 CNS = tested on: SNB-75 CNS
SR leukemia = tested on: SR leukemia
SW-620 colon = tested on: SW-620 colon
T-47D breast = tested on: T-47D breast
TK-10 renal = tested on: TK-10 renal
U251 CNS = tested on: U251 CNS
UACC-257 melanoma = tested on: UACC-257 melanoma
UACC-62 melanoma = tested on: UACC-62 melanoma
UO-31 renal = tested on: UO-31 renal

## Cc1ccc(C(=O)Nc2ccc(CN3CCN(C)CC3)c(C(F)(F)F)c2)cc1C#Cc1cnc(N)cc1C#N
786-0 renal
  GI50: 162 nM
  TGI: 826 nM
A498 renal
  GI50: 159 nM
  TGI: 701 nM
A549 NSCLC
  GI50: 233 nM
  TGI: 958 nM
ACHN renal
  GI50: 74 nM
  TGI: 555 nM
BT-549 breast
  GI50: 654 nM
  TGI: 2670 nM
CAKI-1 renal
  GI50: 82.8 nM
  TGI: 538 nM
CCRF-CEM leukemia
  GI50: 460 nM
  TGI: 9610 nM
COLO 205 colon
  GI50: 90.1 nM
  TGI: 714 nM
DU-145 prostate
  GI50: 127 nM
  TGI: 838 nM
EKVX NSCLC
  GI50: 366 nM
  TGI: 1440 nM
HCC-2998 colon
  GI50: 407 nM
  TGI: 1170 nM
HCT-116 colon
  GI50: 85.2 nM
  TGI: 642 nM
HCT-15 colon
  GI50: 130 nM
  TGI: 762 nM
HL-60(TB) leukemia
  GI50: 233 nM
  TGI: 1080 nM
HOP-62 NSCLC
  GI50: 298 nM
  TGI: 2050 nM
HOP-92 NSCLC
  GI50: 49.6 nM
  TGI: 566 nM
HS 578T breast
  GI50: 143 nM
  TGI: 1330 nM
HT29 colon
  GI50: 51 nM
  TGI: 729 nM
IGROV1 ovarian
  GI50: 26.5 nM
  TGI: 276 nM
K-562 leukemia
  GI50: 5 nM
  TGI: 6120 nM
KM12 colon
  GI50: 122 nM
  TGI: 716 nM
LOX IMVI melanoma
  GI50: 39.4 nM
  TGI: 522 nM
M14 melanoma
  GI50: 21 nM
  TGI: 511 nM
MALME-3M melanoma
  GI50: 27.6 nM
  TGI: 187 nM
MCF7 breast
  GI50: 701 nM
  TGI: 1580 nM
MDA-MB-231 breast
  GI50: 112 nM
  TGI: 621 nM
MDA-MB-435
  GI50: 72.1 nM
  TGI: 659 nM
MOLT-4 leukemia
  GI50: 137 nM
  TGI: 1080 nM
NCI-H226 lung
  GI50: 155 nM
  TGI: 4950 nM
NCI-H23 lung
  GI50: 340 nM
  TGI: 1280 nM
NCI-H460 lung
  GI50: 91.5 nM
  TGI: 968 nM
NCI-H522 lung
  GI50: 176 nM
  TGI: 925 nM
NCI/ADR-RES ovarian
  GI50: 270 nM
  TGI: 1680 nM
OVCAR-3 ovarian
  GI50: 211 nM
  TGI: 1010 nM
OVCAR-4 ovarian
  GI50: 99.8 nM
  TGI: 1420 nM
OVCAR-5 ovarian
  GI50: 309 nM
  TGI: 1420 nM
OVCAR-8 ovarian
  GI50: 224 nM
  TGI: 1150 nM
PC-3 prostate
  GI50: 343 nM
  TGI: 1760 nM
RPMI-8226 leukemia
  GI50: 496 nM
  TGI: 2700 nM
RXF 393 renal
  GI50: 129 nM
  TGI: 706 nM
SF-268 CNS
  GI50: 200 nM
  TGI: 1200 nM
SF-295 CNS
  GI50: 315 nM
  TGI: 1160 nM
SF-539 CNS
  GI50: 277 nM
  TGI: 926 nM
SK-MEL-2 melanoma
  GI50: 108 nM
  TGI: 479 nM
SK-MEL-28 melanoma
  GI50: 106 nM
  TGI: 701 nM
SK-MEL-5 melanoma
  GI50: 741 nM
  TGI: 1430 nM
SK-OV-3 ovarian
  GI50: 186 nM
  TGI: 2500 nM
SN12C renal
  GI50: 91.8 nM
  TGI: 733 nM
SNB-19 CNS
  GI50: 539 nM
  TGI: 1300 nM
SNB-75 CNS
  GI50: 112 nM
  TGI: 798 nM
SR leukemia
  GI50: 162 nM
  TGI: 1230 nM
SW-620 colon
  GI50: 330 nM
  TGI: 1150 nM
T-47D breast
  GI50: 605 nM
  TGI: 8710 nM
TK-10 renal
  GI50: 190 nM
  TGI: 833 nM
U251 CNS
  GI50: 222 nM
  TGI: 997 nM
UACC-257 melanoma
  GI50: 132 nM
  TGI: 834 nM
UACC-62 melanoma
  GI50: 31 nM
  TGI: 452 nM
UO-31 renal
  GI50: 94.9 nM
  TGI: 442 nM
